# Measured values from patent publication US9145392B2, “Imidazole amines as modulators of kinase activity” (Merck Patent GmbH, priority 2011, dated 2015).
# Columns and labels:
# P70S6K (T412E mutant) = P70S6K (T412E mutant) (Homo sapiens (Human), UniProt P23443, T412E); assay: P70S6K enzyme assay; assay type: biochemical; conditions: read-out: IC50 p70S6K
# Experimental: P70S6K inhibitor compounds are diluted and plated in 96 well plates. […] The reaction is incubated for 90 min at 25° C., before the addition of 10 mM EDTA to stop the reaction. The proportion of substrate and product (phosphorylated) peptide is analysed on a Caliper Life Sciences Lab Chip 3000, using a pressure of −1.4 psi, and upstream and downstream voltages of −3000 and −700 respectively. Product peaks are resolved before substrate peaks on the resulting chromatograms.
# His-AKT (Full Length) = His-AKT (Full Length) (Homo sapiens (Human), UniProt P31749); assay: AKT enzyme assay; assay type: biochemical; conditions: read-out: IC50 AKT
# Chain of His-AKT (Full Length) (P31749 whole entry): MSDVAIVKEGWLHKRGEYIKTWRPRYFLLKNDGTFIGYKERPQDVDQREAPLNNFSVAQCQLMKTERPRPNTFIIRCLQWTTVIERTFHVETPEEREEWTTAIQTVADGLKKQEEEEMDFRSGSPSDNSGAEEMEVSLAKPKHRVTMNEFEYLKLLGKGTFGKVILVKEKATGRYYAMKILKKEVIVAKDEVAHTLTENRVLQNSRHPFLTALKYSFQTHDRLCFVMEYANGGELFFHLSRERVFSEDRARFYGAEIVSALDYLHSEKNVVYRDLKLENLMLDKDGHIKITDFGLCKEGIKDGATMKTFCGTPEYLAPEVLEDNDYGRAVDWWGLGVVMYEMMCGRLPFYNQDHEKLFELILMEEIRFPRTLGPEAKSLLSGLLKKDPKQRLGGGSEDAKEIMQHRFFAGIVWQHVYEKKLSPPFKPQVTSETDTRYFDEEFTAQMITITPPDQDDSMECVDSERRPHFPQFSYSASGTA
# Experimental: A TTP Mosquito liquid handling instrument is used to place 125n1 of the appropriate concentration of inhibitor in 100% DMSO (for a dose response curve calculation) into each well of a 384-well plate.
# The reaction is incubated for 90 min at 25 C, and then stopped by the addition of 70 μl of Stop buffer (100 mM HEPES pH 7.5, 0.015% Brij-35, 10 mM EDTA (Sigma, E7889)).
# The plate is read on a Caliper LC 3000 in an Off-Chip mobility shift assay format, using the following parameters for a 12-sipper chip: screening pressure −2.3 psi, upstream voltage −500, and downstream voltage −3000. These conditions cause unphosphorylated substrate and phosphorylated product peptide to resolve as separate peaks allowing direct measurement of percentage of conversion of substrate to product. The percent conversion can be plotted against concentration of inhibitor to produce a sigmoidal dose response curve, from which an IC50 can be calculated.
# Chain of P70S6K (T412E mutant) (P23443 whole entry T412E): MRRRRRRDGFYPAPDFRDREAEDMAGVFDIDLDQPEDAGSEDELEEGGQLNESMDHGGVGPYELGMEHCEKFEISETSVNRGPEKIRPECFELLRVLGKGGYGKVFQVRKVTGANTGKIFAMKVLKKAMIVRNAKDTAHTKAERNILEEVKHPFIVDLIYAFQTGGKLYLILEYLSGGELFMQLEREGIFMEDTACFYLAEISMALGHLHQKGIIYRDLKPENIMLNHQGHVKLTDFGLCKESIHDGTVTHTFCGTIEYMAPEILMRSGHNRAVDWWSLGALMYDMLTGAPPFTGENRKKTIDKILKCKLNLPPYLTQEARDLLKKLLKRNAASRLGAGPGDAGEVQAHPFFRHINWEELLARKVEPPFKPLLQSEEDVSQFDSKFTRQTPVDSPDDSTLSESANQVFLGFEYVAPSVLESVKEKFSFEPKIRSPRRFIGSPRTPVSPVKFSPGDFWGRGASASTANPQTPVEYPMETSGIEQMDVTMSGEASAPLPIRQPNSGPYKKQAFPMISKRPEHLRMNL
Compound,IC50 (P70S6K (T412E mutant)) [nM],IC50 (His-AKT (Full Length)) [nM]
"Cn1cc(-c2ccc(F)c(C(F)(F)F)c2)nc1C1CCN(c2ncnc(N)c2Br)CC1 [Compound 1, 5-Bromo-6-{4-[4-(4-fluoro-3-trifluoromethyl-phenyl)-1-methyl-1H-imidazol-2-yl]-piperidin-1-yl}-pyrimidin-4-ylamine]",2.1,66
"Nc1ncnc(N2CCC(c3nc(-c4cccc(C(F)(F)F)c4)c[nH]3)CC2)c1Br [Compound 3, 5-Bromo-6-{4-[4-(3-trifluoromethyl-phenyl)-1H-imidazol-2-yl]-piperidin-1-yl}-pyrimidin-4-ylamine]",6.2,1700
"FC(F)(F)c1cccc(-c2c[nH]c(C3CCN(c4ncncc4Br)CC3)n2)c1 [Compound 4, 5-Bromo-4-{4-[4-(3-trifluoromethyl-phenyl)-1H-imidazol-2-yl]-piperidin-1-yl}-pyrimidine]",31.9,6100
"Cn1cc(-c2ccc(F)c(C(F)(F)F)c2)nc1C1CCN(c2ncnc(N)c2C=O)CC1 [Compound 6, 4-Amino-6-{4-[4-(4-fluoro-3-trifluoromethyl-phenyl)-1-methyl-1H-imidazol-2-yl]-piperidin-1-yl}-pyrimidine-5-carbaldehyde]",0.6,160
"Cn1cc(-c2ccc(F)c(C(F)(F)F)c2)nc1C1CCN(c2ncnc(N)c2C#N)CC1 [Compound 7, 4-Amino-6-{4-[4-(4-fluoro-3-trifluoromethyl-phenyl)-1-methyl-1H-imidazol-2-yl]-piperidin-1-yl}-pyrimidine-5-carbonitrile]",1.5,110
"CN(C)CCn1cc(-c2ccc(F)c(C(F)(F)F)c2)nc1C1CCN(c2ncnc(N)c2C#N)CC1 [Compound 8, 4-Amino-6-{4-[1-(2-dimethylamino-ethyl)-4-(4-fluoro-3-trifluoromethyl-phenyl)-1H-imidazol-2-yl]-piperidin-1-yl}-pyrimidine-5-carbonitrile]",1.8,9.1
"COc1c(N)ncnc1N1CCC(c2nc(-c3ccc(F)c(C(F)(F)F)c3)cn2C)CC1 [Compound 9, 6-{4-[4-(4-Fluoro-3-trifluoromethyl-phenyl)-1-methyl-1H-imidazol-2-yl]-piperidin-1-yl}-5-methoxy-pyrimidin-4-ylamine]",2.1,440
"Cn1cc(-c2ccc(F)c(C(F)(F)F)c2)nc1C1CCN(c2ncnc(N)c2-c2cccc(C#N)c2)CC1 [Compound 15, 3-(4-Amino-6-{4-[4-(4-fluoro-3-trifluoromethyl-phenyl)-1-methyl-1H-imidazol-2-yl]-piperidin-1-yl}-pyrimidin-5-yl)-benzonitrile]",11,150
"Cc1ccc(-c2c(N)ncnc2N2CCC(c3nc(-c4ccc(F)c(C(F)(F)F)c4)cn3C)CC2)s1 [Compound 20, 6-{4-[4-(4-Fluoro-3-trifluoromethyl-phenyl)-1-methyl-1H-imidazol-2-yl]-piperidin-1-yl}-5-(5-methyl-thiophen-2-yl)-pyrimidin-4-ylamine]",7.1,2700
"Cn1cc(-c2ccc(F)c(C(F)(F)F)c2)nc1C1CCN(c2ncnc(N)c2CO)CC1 [Compound 36, (4-Amino-6-{4-[4-(4-fluoro-3-trifluoromethyl-phenyl)-1-methyl-1H-imidazol-2-yl]-piperidin-1-yl}-pyrimidin-5-yl)-methanol]",2.2,1100
"Cn1cc(-c2ccc(F)c(C(F)(F)F)c2)nc1C1CCN(c2ncnc(N)c2C(N)=O)CC1 [Compound 37, 4-Amino-6-{4-[4-(4-fluoro-3-trifluoromethyl-phenyl)-1-methyl-1H-imidazol-2-yl]-piperidin-1-yl}-pyrimidine-5-carboxamide]",2.6,1600
"CN(C)CCn1cc(-c2ccc(F)c(C(F)(F)F)c2)nc1C1CCN(c2ncnc(N)c2C(N)=O)CC1 [Compound 38, 4-Amino-6-{4-[1-(2-dimethylamino-ethyl)-4-(4-fluoro-3-trifluoromethyl-phenyl)-1H-imidazol-2-yl]-piperidin-1-yl}-pyrimidine-5-carboxylic acid amide]",3.5,84
"Cn1cc(-c2ccc(F)c(C(F)(F)F)c2)nc1C1CCN(c2ncncc2Br)CC1 [Compound 41, 5-Bromo-4-{4-[4-(4-fluoro-3-trifluoromethyl-phenyl)-1-methyl-1H-imidazol-2-yl]-piperidin-1-yl}-pyrimidine]",3,1400

# Other lines, results leading:
IC50 (P70S6K (T412E mutant)) [nM],IC50 (His-AKT (Full Length)) [nM],Compound
3.4,2200,"Cn1cc(-c2ccc(F)c(C(F)(F)F)c2)nc1C1CCN(c2ncnc(N)c2-c2ccc(F)cc2)CC1 [Compound 10, 5-(4-Fluoro-phenyl)-6-{4-[4-(4-fluoro-3-trifluoromethyl-phenyl)-1-methyl-1H-imidazol-2-yl]-piperidin-1-yl}-pyrimidin-4-ylamine]"
4.7,520,"COc1ccc(-c2c(N)ncnc2N2CCC(c3nc(-c4ccc(F)c(C(F)(F)F)c4)cn3C)CC2)cc1 [Compound 11, 6-{4-[4-(4-Fluoro-3-trifluoromethyl-phenyl)-1-methyl-1H-imidazol-2-yl]-piperidin-1-yl}-5-(4-methoxy-phenyl)-pyrimidin-4-ylamine]"
7.3,8300,"Cc1ccc(-c2c(N)ncnc2N2CCC(c3nc(-c4ccc(F)c(C(F)(F)F)c4)cn3C)CC2)cc1 [Compound 13, 6-{4-[4-(4-Fluoro-3-trifluoromethyl-phenyl)-1-methyl-1H-imidazol-2-yl]-piperidin-1-yl}-5-p-tolyl-pyrimidin-4-ylamine]"
1.9,250,"Cn1cc(-c2ccc(F)c(C(F)(F)F)c2)nc1C1CCN(c2ncnc(N)c2-c2ccc(CO)cc2)CC1 [Compound 14, [4-(4-Amino-6-{4-[4-(4-fluoro-3-trifluoromethyl-phenyl)-1-methyl-1H-imidazol-2-yl]-piperidin-1-yl}-pyrimidin-5-yl)-phenyl]-methanol]"
2.7,2.7,"Cn1cc(-c2ccc(F)c(C(F)(F)F)c2)nc1C1CCN(c2ncnc(N)c2-c2ccc(C#N)cc2)CC1 [Compound 17, 4-(4-Amino-6-{4-[4-(4-fluoro-3-trifluoromethyl-phenyl)-1-methyl-1H-imidazol-2-yl]-piperidin-1-yl}-pyrimidin-5-yl)-benzonitrile]"
2.2,1700,"Cc1ccc(-c2c(N)ncnc2N2CCC(c3nc(-c4ccc(F)c(C(F)(F)F)c4)cn3C)CC2)cn1 [Compound 19, 6-{4-[4-(4-Fluoro-3-trifluoromethyl-phenyl)-1-methyl-1H-imidazol-2-yl]-piperidin-1-yl}-5-(6-methyl-pyridin-3-yl)-pyrimidin-4-ylamine]"
1.4,860,"Cn1cc(-c2ccc(F)c(C(F)(F)F)c2)nc1C1CCN(c2ncnc(N)c2-c2ccncc2)CC1 [Compound 39, 6-{4-[4-(4-Fluoro-3-trifluoromethyl-phenyl)-1-methyl-1H-imidazol-2-yl]-piperidin-1-yl}-5-pyridin-4-yl-pyrimidin-4-ylamine]"
2.3,2700,"Cn1cc(-c2ccc(F)c(C(F)(F)F)c2)nc1C1CCN(c2ncnc(N)c2-c2ccc(N)nc2)CC1 [Compound 40, 5-(6-Amino-pyridin-3-yl)-6-{4-[4-(4-fluoro-3-trifluoromethyl-phenyl)-1-methyl-1H-imidazol-2-yl]-piperidin-1-yl}-pyrimidin-4-ylamine]"
